Experimental data from US20260207794A1, “NOVEL COMPOUNDS FOR DIAGNOSIS” (AC IMMUNE SA, priority 2022, published 2026).
Structures can show the parent of a compound that is named as a salt.

Target: T1, PD brain-derived alpha-synuclein aggregates (Homo sapiens, UniProt P37840)
T1 construct: from tissue; host or cells: human PD donor brain, sarkosyl-insoluble pellet
Assay: Micro-radiobinding competition assay
Type: binding
Details: for Competition at 100 nM (%): 100 nM example compound; for Competition at 100 nM (%) / Competition at 1 μM (%): competition over [3H]-alpha-syn reference ligand (20 nM or 30 nM), human PD brain-derived a-syn aggregates; for Competition at 1 μM (%): 1 μM example compound; for Ki: mean of two independent experiments, PD brain-derived homogenates from two different donors
Experimental: The procedure was adapted from the protocol described in Spillantini et al., 1998. Frozen tissue blocks from PD donors were thawed on ice and homogenized using a glass dounce homogenizer. The homogenate was then centrifuged at 11,000×g (12,700 RPM) in an ultracentrifuge (Beckman, XL100K) for 20 minutes at 4° C. using a pre-cooled 70.1 rotor (Beckman, 342184). Pellets were resuspended in extraction buffer [10 mM Tris-HCl pH 7.4, 10% sucrose, 0.85 M NaCl, 1% protease inhibitor (Calbiochem 539131), 1 mM EGTA, 1% phosphatase inhibitor (Sigma P5726 and P0044)] and centrifuged at 15,000×g (14,800 RPM, a 70.1 Ti rotor) for 20 minutes at 4° C. Pellets were discarded and sarkosyl (20% stock solution, Sigma L7414) was added to the supernatants to a final concentration of 1% and stirred at room temperature for one hour. This solution was then centrifuged at 100,000×g (38,000 RPM, 70.1 Ti rotor) for one hour at 4° C. Pellets containing enriched alpha-synuclein aggregates were resuspended in PBS per gram of brain initially used and stored at −80° C. until use.
PD brain-derived alpha-synuclein aggregates were spotted onto microarray slides. The slides were incubated with [^3H]-alpha-synuclein reference at 20 nM or 30 nM and the example compounds (non-radiolabelled) at 1 μM and 100 nM. In some cases, the non-radiolabelled example compounds were further assessed for a range of different concentrations, varying from 0.05 nM to 2 μM. After incubation, slides were washed and scanned by a real-time autoradiography system (BeaQuant, ai4R). Quantification of signal was performed by using the image analysis software Beamage (ai4R).
Non-specific signal was determined with an excess of non-radiolabelled alpha-syn reference compound (2 μM) and specific binding was calculated by subtracting the non-specific signal from the total signal. Competition was calculated as percentage, where 0% was defined as the specific binding in the presence of vehicle and 100% as the values obtained in the presence of excess of the non-radiolabelled alpha-syn reference compound. Ki values were calculated in GraphPad Prism7 by applying a nonlinear regression curve fit using a one site, specific binding model. All measurements were performed with at least two technical replicates. For compounds tested in more than one experiment, the mean of the replicates or Ki values in independent experiments is reported.

Compound | Competition at 100 nM (%) | Competition at 1 μM (%) | Ki
O=C1N(c2cccnc2)Cc2cc(-c3ccc(N4CC[C@@H](F)C4)nc3)cn21 [Example 1, (R)-6-(6-(3-fluoropyrrolidin-1-yl)pyridin-3-yl)-2-(pyridin-3-yl)-1H-pyrrolo[1,2-c]imidazol-3(2H)-one Hydrochloride] | 75% | 95% | 
O=C1N(c2cccnc2)Cc2nc(-c3ccc(N4CC[C@@H](F)C4)nc3)cn21 [Example 2, (R)-2-(6-(3-fluoropyrrolidin-1-yl)pyridin-3-yl)-6-(pyridin-3-yl)-6,7-dihydro-5H-imidazo[1,5-a]imidazol-5-one Hydrochloride] | 63% | 86% | 124 nM
O=C1N(c2cccnc2)Cc2nc(-c3ccc(N4CC[C@H](F)C4)nc3)cn21 [Example 3, (S)-2-(6-(3-fluoropyrrolidin-1-yl)pyridin-3-yl)-6-(pyridin-3-yl)-6,7-dihydro-5H-imidazo[1,5-a]imidazol-5-one Hydrochloride] | 59% | 85% | 97 nM
O=C1N(c2cccnc2)Cc2cc(-c3ccc(F)nc3)cn21 [Example 4, 6-(6-fluoropyridin-3-yl)-2-(pyridin-3-yl)-1H-pyrrolo[1,2-c]imidazol-3(2H)-one] | 51% | 52% | 
Cn1cc(N2Cc3cc(-c4ccc(N5CC[C@H](F)C5)nc4)cn3C2=O)cn1 [Example 5, (S)-6-(6-(3-fluoropyrrolidin-1-yl)pyridin-3-yl)-2-(1-methyl-1H-pyrazol-4-yl)-1,2-dihydro-3H-pyrrolo[1,2-c]imidazol-3-one Hydrogen Chloride Salt] | 87% | 102% | 
Cn1cc(N2Cc3cc(-c4ccc(N5CC[C@@H](F)C5)nc4)cn3C2=O)cn1 [Example 6, (R)-6-(6-(3-fluoropyrrolidin-1-yl)pyridin-3-yl)-2-(1-methyl-1H-pyrazol-4-yl)-1,2-dihydro-3H-pyrrolo[1,2-c]imidazol-3-one Hydrogen Chloride Salt] | 82% | 100% | 
O=C1N(c2cccnc2)Cc2cc(-c3ccc(N4CC[C@H](F)C4)nc3)cn21 [Example 7, (S)-6-(6-(3-fluoropyrrolidin-1-yl)pyridin-3-yl)-2-(pyridin-3-yl)-1,2-dihydro-3H-pyrrolo[1,2-c]imidazol-3-one Hydrogen Chloride Salt] | 69% | 85% | 
